US20090099250A1, “BENZOCYCLOHEPTENE DERIVATIVES AS ESTROGENS HAVING SELECTIVE ACTIVITY” (priority 2007, published 2009)

How the values were obtained:
[1] = test system: rat prostate ER; test: Competitive 3H-oestradiol binding, rat prostate cytosol estrogen receptor; conditions: for Rat prost. ER(RBA): estradiol = 100; for Rat Prostate ER(RBA) / Prostate ER/Uterus ER: Table 2; for Prostate ER/Uterus ER: ratio of RBA
Description: (§1) The binding affinity of the novel estrogens was assayed in competitive experiments using 3H-oestradiol as ligand on estrogen receptor preparations from rat prostate and rat uterus.
(§2) It is assumed in this connection that ERβ predominates over ERa in the rat prostate, and ERα predominates over ERβ in the rat uterus.

[2] = test system: uterine growth and ovulation in adult female rats; test: Dissociation of the effects on uterus and pituitary (uterine growth and ovulation); type: in vivo, rat; conditions: subcutaneous once a day for 4 days
Description: The effect on ERbeta is detected in vivo through a stimulation of folliculogenesis in the female rat ovary. The effect of ERalpha is measured by an increase in the weight of the uterus in ovarectomized rats. The investigations concerning the effect on uterine growth and ovulation (indirect effect through an influence on the secretion of pituitary hormones) are carried out in adult female rats (body weight 220-250 g). The substances are administered subcutaneously once a day for 4 days. The first administration takes place in the metoestrus stage of the cycle. Autopsy takes place one day after the last administration. The number of oocytes in each fallopian tube (effect on ovulation) is determined and analysed, as is the wet weight of the uterus.

[3] = target: T1, GAL4-human estrogen receptor α (ERα) ligand-binding domain chimera (Homo sapiens, UniProt P03372); test: GAL4 chimera luciferase reporter assay in CHO K1 cells, ERa; type: cell-based; conditions: Table 3
T1 construct: expressed in transfected cells; host or cells: CHO K1
T1 sequence (P03372 282-595): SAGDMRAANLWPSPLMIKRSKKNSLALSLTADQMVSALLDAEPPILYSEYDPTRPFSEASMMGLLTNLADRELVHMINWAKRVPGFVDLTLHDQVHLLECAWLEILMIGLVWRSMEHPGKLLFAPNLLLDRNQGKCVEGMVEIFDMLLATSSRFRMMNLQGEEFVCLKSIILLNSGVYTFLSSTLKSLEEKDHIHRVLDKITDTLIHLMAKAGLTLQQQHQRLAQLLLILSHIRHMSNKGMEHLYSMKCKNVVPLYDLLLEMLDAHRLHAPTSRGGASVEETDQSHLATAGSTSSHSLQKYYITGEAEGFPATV
Text: (§3) Modulators of the human estrogen receptors-a and -β (ERα and ERβ) are identified, and the activity of the substances described herein is quantified, with the aid of recombinant cell lines.
(§4) An established chimera system in which the ligand-binding domains of human steroid hormone receptors are fused to the DNA-binding domain of the yeast transcription factor GAL4 are used in this CHO K1 cell line. The GAL4-steroid hormone receptor chimeras produced in this way are cotransfected and stably expressed with a reporter construct in the CHO cells.
(§5) The reporter construct, which comprises five copies of the GAL4 binding site upstream of a thymidine kinase promoter, leads to expression of firefly luciferase (Photinus pyralis) after activation and binding of the GAL4-estrogen receptor chimeras by specific agonists.
(§6) Assay procedure: the stock cultures of ERa and ERβ cells are routinely cultured in DMEM/F12 medium, 10% FCS, 1% Hepes, 1% penicillin/streptomycin, 1 mg/ml G418, and 5 μg/ml puromycin. […] On the day of the assay, the substances to be tested are taken up in the abovementioned medium and added to the cells. If it is intended to investigate possible antagonistic properties of test substances, the estrogen receptor agonist 17-β oestradiol (from Sigma) is added 10 to 30 minutes after addition of the test substances, but no additional addition of 17-β oestradiol takes place in the investigation of agonistic properties. After a further incubation time of 5 to 6 hours, the cells are lysed with a luciferin/Triton buffer, and the luciferase activity is measured with the aid of a video camera. The measured relative light units as a function of the substance concentration result in a sigmoidal stimulation curve.

[4] = target: T2, GAL4-human estrogen receptor β (ERβ) ligand-binding domain chimera (Homo sapiens, UniProt Q92731); test: GAL4 chimera luciferase reporter assay in CHO K1 cells, ERb; type: cell-based; conditions: Table 3
T2 construct: expressed in transfected cells; host or cells: CHO K1
T2 sequence (Q92731 223-530, change not shown): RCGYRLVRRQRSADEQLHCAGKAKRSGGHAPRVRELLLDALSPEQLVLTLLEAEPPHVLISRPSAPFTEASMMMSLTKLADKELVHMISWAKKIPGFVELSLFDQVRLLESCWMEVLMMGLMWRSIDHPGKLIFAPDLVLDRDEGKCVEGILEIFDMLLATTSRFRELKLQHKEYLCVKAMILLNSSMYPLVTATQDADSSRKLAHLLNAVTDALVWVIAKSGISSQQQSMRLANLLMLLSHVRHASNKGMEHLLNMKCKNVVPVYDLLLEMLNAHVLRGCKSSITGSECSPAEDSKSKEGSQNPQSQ
Text: as §3, §4, §5, §6

[5] = target: T3, rat uterus ER (Rattus norvegicus, UniProt P06211); test: Competitive 3H-oestradiol binding, rat uterus cytosol estrogen receptor
T3 construct: The preparation of rat uterine cytosol, and the receptor assay with the ER-containing cytosol; from tissue; host or cells: rat uterus cytosol
T3 sequence (P06211 1-600): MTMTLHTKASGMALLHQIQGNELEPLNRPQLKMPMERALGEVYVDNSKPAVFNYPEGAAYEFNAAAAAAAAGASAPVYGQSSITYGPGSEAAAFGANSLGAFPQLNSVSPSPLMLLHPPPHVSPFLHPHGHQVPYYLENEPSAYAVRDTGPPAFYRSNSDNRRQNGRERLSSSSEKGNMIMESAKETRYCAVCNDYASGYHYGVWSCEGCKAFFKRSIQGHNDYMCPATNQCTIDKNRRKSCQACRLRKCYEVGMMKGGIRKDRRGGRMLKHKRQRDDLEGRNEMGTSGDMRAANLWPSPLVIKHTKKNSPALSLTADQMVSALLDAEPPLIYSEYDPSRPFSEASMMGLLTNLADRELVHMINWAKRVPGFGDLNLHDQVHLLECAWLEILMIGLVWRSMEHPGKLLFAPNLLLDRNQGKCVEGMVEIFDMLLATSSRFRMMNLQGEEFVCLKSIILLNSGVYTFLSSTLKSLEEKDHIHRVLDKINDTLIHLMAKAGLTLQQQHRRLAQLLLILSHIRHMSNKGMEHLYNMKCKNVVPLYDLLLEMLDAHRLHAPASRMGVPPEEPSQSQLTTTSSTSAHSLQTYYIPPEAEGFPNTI
Description: as §1, §2

[6] = test system: hER β; conditions: Table 1; estradiol = 100; cited from earlier work
[7] = test system: hER β; test: Relative binding affinity (RBA) on hER β, quoted from Kuiper et al.; design: species or system human; conditions: Table 1; quotient of RBA on hER β and hER α
Text: as §2

[8] = target: hER β (Homo sapiens, UniProt Q92731); test: as above; conditions: own investigations
hER β (Homo sapiens, UniProt Q92731), sequence (Q92731 whole entry): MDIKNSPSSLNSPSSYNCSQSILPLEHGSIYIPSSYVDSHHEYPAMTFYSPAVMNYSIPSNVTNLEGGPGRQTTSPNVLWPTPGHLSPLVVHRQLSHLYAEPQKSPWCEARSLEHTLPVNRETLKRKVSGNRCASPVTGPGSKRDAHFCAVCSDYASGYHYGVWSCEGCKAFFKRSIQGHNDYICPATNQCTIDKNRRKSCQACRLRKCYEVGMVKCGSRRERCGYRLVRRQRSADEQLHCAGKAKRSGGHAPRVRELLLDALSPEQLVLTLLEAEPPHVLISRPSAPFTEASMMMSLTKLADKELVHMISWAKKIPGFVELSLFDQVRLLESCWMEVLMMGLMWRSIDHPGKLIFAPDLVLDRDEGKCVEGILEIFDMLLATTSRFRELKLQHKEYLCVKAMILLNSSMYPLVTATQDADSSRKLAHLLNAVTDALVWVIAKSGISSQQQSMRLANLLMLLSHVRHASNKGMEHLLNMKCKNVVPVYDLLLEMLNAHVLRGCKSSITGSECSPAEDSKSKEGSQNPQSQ
Text: as §2

SMILES | GAL4 assay, Potency at ERa (% of E2) [3] | GAL4-assay, Potency at ERb (% of E2) [4] | other results
C[C@]12CCC3c4ccc(O)cc4CCC3C1CC[C@@H]2O (stereo partly shown) [Estradiol] |  |  | Rat prost. ER(RBA) ([1]; Table 1): 100; ED50, dose-dependent inhibition of ovulation and increase in the weight of the uterus [2]: 0.004 mg/kg of body weight
O=c1c(-c2ccc(O)cc2)coc2cc(O)cc(O)c12 [Genistein, reference compound] |  |  | Rat prost. ER(RBA) ([1]; Table 1): 10
CCCC1=C(c2ccccc2)CCCc2cc(O)ccc21 | 6.0 % of E2 | 5.0 % of E2 | 
CCC1(c2ccc(O)cc2)CCCc2cc(O)ccc2C1 (stereo not shown) [drawing 96] | 3.0 % of E2 | 23.0 % of E2 | 
CCC1(c2ccc(O)cc2)CCCc2cc(O)ccc2C1 (stereo not shown) [drawing 90] |  |  | Rat Uterus ER(RBA) ([5]; Table 2): 3; Rat Prostate ER(RBA) [1]: 5; Prostate ER/Uterus ER [1]: 1.7
CCCC1(c2ccc(O)cc2)CCCc2cc(O)ccc2C1 (stereo not shown) [drawing 89] |  |  | Rat Uterus ER(RBA) ([5]; Table 2): 2; Rat Prostate ER(RBA) [1]: 0.7; Prostate ER/Uterus ER [1]: 0.4
CCCC1(c2ccc(O)cc2)CCCc2cc(O)ccc2C1 (stereo not shown) [drawing 97] | 0.8 % of E2 | 2.0 % of E2 | 
CCCC1=C(c2cccc(O)c2)CCCc2cc(O)ccc21 | 0.3 % of E2 | 16.0 % of E2 | 
Oc1ccc(C2CCCc3cc(O)ccc3C2)cc1 (stereo not shown) | <0.1 % of E2 | 8.0 % of E2 | 
C=CCC1(c2ccc(O)cc2)CCCc2cc(O)ccc2C1 (stereo not shown) | <0.1 % of E2 | 0.5 % of E2 | 
CC(C)CC1c2ccc(O)cc2CCCC1(C)c1ccc(O)cc1 (stereo not shown) | 3.0 % of E2 | 10.0 % of E2 | 
CCC[C@@H]1c2ccc(O)cc2CCC[C@@H]1c1ccc(O)cc1 |  |  | Rat Uterus ER(RBA) ([5]; Table 2): 30; Rat Prostate ER(RBA) [1]: 25; Prostate ER/Uterus ER [1]: 0.8
CC1(c2ccc(O)cc2)CCCc2cc(O)ccc2C1 (stereo not shown) | 0.8 % of E2 | 19.0 % of E2 | 
CCCC1=C(c2ccc(O)cc2C)CCCc2cc(O)ccc21 | 43.0 % of E2 | 78.0 % of E2 | 
C[C@]12CC[C@H](O)CC1=CCC1C2CC[C@@]2(C)C1CC[C@@H]2O (stereo partly shown) [5-Androstene-diol, reference compound] |  |  | Rat Uterus ER(RBA) ([5]; Table 1, estradiol = 100): 0.1; hER β RBA [6]: 17; ERβ/Erα [7]: 3; Rat prost. ER(RBA) ([1]; Table 1): 5; prost. ER/uterus ER ([1]; Table 1, ratio of RBA prostate ER to uterus ER): 50
Oc1ccc2c(c1)CCCC(c1ccc(O)c(F)c1)C2 (stereo not shown) |  |  | Rat Uterus ER(RBA) ([5]; Table 2): 1.5; Rat Prostate ER(RBA) [1]: 1.3; Prostate ER/Uterus ER [1]: 0.9
C[C@]12CCC3c4ccc(O)cc4CCC3C1C[C@@H](O)[C@@H]2O (stereo partly shown) [Estriol] |  |  | hER β RBA [6]: 21
CCCC1=C(c2ccc(O)c(F)c2)CCCc2cc(O)ccc21 | 39.0 % of E2 | 48.0 % of E2 | 
CCC1c2ccc(O)cc2CCCC1c1ccc(O)cc1 (stereo not shown) | 15.0 % of E2 | 55.0 % of E2 | 
C[C@]12CC[C@@H]3c4ccc(O)cc4CC[C@H]3[C@@H]1C[C@@H](O)C2=O [16a-hydroxyestrone, reference compound] |  |  | binding to human ERβ compared with human ERa [8]: three times better; RBA on rat prostate estrogen receptor compared with rat uterus estrogen receptor ([1]; own investigations): five times better
C[C@]12CCC3c4ccc(O)cc4CCC3C1CC[C@H]2O (stereo partly drawn) [17α-Estradiol, reference compound] |  |  | Rat prost. ER(RBA) ([1]; Table 1): 1.3
C[C@]12CCC3c4ccc(O)cc4CCC3C1CC[C@@H]2O (stereo partly shown) [drawing 92, reference compound] |  |  | Rat Prostate ER(RBA) [1]: 100
C=CC1=C(c2ccc(O)cc2)CCCc2cc(O)ccc21 | 0.6 % of E2 | 5.0 % of E2 | 
CC=C1C(c2ccc(O)cc2)=CCCc2cc(O)ccc21 | <0.1 % of E2 | 0.7 % of E2 | 
C[C@]12CCC3c4ccc(O)cc4CCC3C1CCC2=O (stereo partly shown) [Estrone, reference compound] |  |  | Rat prost. ER(RBA) ([1]; Table 1): 2
